Laboratory results reported in US12486489B2, “Culture medium for testing drug resistance of H.pylori as well as preparation method and use thereof” (priority 2022, dated 2025).
Read-outs that look alike come from different tables or passages of the source.

Experiments:
[1] = tested on: clinical H. pylori strain; assay: MIC of clinical H. pylori strains by micro dilution method; assay type: cell-based; details: Helicobacter pylori, 72 h, approximately 1.0×10^6 CFU/mL per well, 72 hours, read-out: MIC
Description: (§1) The characteristic culture media (A, B, C, D, E) are cultivated at a constant temperature of 37° C. for 36 hours in a three gas incubator. The characteristic culture media are removed and placed in a natural environment for 30 minutes to observe whether there are discolorations at the point of the culture medium where the specimen is dropped in. […] Another 100 μL of the specimen is taken and coated on Columbia solid culture medium and cultivated in a three gas incubator at a constant temperature of 37° C. for 3 days to 5 days. The number of colonies on the plate is counted to determine the initial inoculation amount. The micro dilution method is adopted to test the MIC of clinical specimen H. pylori, the test is meaningful only when there is no bacterial growth in the negative control well without bacteria and there is bacterial growth in the positive well with bacteria but without antibiotics.
H. pylori single colony grown on Colombian culture medium is taken (which is confirmed as H. pylori by urease, oxidase, catalase, and PCR testing of CagA gene, as illustrated in FIG. 13) and the bacteria are increased. During the preparation of MIC plates and bacterial solution, H. pylori with logarithmic growth phase is taken to prepare a bacterial suspension by using BHI. The concentration OD600 is adjusted to 0.3 (1×10^8 CFU/mL, diluted 10 times, 10 μL is taken and added to wells 1-8 (with a bacterial solution concentration of approximately 1.0×10^6 CFU/mL per well, cultivated for 72 hours to determine the results.

[2] = tested on: clinical H. pylori strain; assay: Drug resistance testing of clinical specimens on characteristic culture medium (discoloration after 36 hours); assay type: cell-based, Helicobacter pylori
Description: as §1
(1) Transfer liquid preparation: after sterilization and cooling, BHI culture medium is added with 10% calf serum, followed by 30% glycerol to prepare H. pylori preservation solution. On this basis, 1% H. pylori selective additive is added to prepare the transfer liquid. 1 mL of transfer solution is taken into a sterile EP tube, and 6-8 sterilized small steel balls are poured into the EP tube for the subsequent use.
(3) Specimen acquisition: a biopsy tissue group is obtained from the gastric antrum and a small curvature side of the gastric body through a gastroscopy biopsy passage and placed into an EP tube (strictly sterile operation). The biopsy tissue is placed on the ice surface and transferred as soon as possible (within 2 hours) to complete the subsequent steps.
(4) Preparation of bacterial solution containing tissue: the EP tube containing tissue is placed in a homogenizer at 300 hz and crushed for 5 minutes, transferred to another EP, centrifuged at 12000 rpm for 2 minutes, the supernatant is discarded, BHI is resuspended to 200 μL, and a bacterial suspension is prepared for the subsequent use.
(5) Inoculation of bacterial solution: 10 μL of bacterial solution is taken and added dropwise to the characteristic culture medium (5 pieces in total). The characteristic culture medium is removed after cultivating in a three gas incubator at 37° C. for 36 hours, and the results are determined after leaving for 30 minutes; another 100 μL is taken and coated onto Colombian culture medium for the traditional bacterial culture.

[3] = tested on: H. pylori; assay: MIC of laboratory H. pylori strains by micro dilution method; assay type: cell-based; details: Helicobacter pylori
Description: (3) Preparation of bacterial solution: H. pylori grown in logarithmic phase on a solid plate is taken, BHI culture medium is used to prepare a bacterial suspension. The concentration of the bacterial solution is adjusted to 1×10^8 CFU/mL (OD600 is 0.3), diluted 10 times, 100 times, and 1000 times to implement a final concentration of […], for the subsequent use.
(4) Inoculation of bacterial solution: 10 μL of the above bacterial solution for the subsequent use is taken and added to wells the 1-10-th and the 12-th well (bacterial working concentration is 1×10^6 CFU/mL), the 11-th well serves as a non-bacterial control and only sterile water is added. The wells are cultivated for 72 hours to determine the results.

[4] = tested on: H. pylori; assay: Verification of resistance breakpoint: growth of laboratory strains on Columbia solid culture medium with added antibiotics, 72 hours; assay type: cell-based, Helicobacter pylori
Description: The plates are cooled and inverted for approximately 10 mL/piece, marked properly for the subsequent use.
(2) Preparation of bacterial solution: H. pylori grown in logarithmic phase on a solid plate is taken to prepare a bacterial suspension by using BHI. The concentration OD600 is adjusted to 0.3 (1×10^8 CFU/mL), diluted 10 times for the subsequent use.
(3) Inoculation of bacterial solution: 10 μL of bacterial solution is taken and added to Columbia culture medium and the results are determined after cultivating for 72 hours.
(4) Result determination: the minimum drug concentration for no growth of bacteria on the plate is the minimum inhibitory concentration of the bacteria against the drug.

[5] = tested on: H. pylori; details: bacterial count 1×10^6 CFU/mL; cited from earlier work

`Cc1ncc([N+](=O)[O-])n1CCO` [Metronidazole, metronidazole] gave an MIC ([1]; clinical strain FY-31) of 1 µg/mL, an MIC ([1]; clinical strain FY-43) of 0.5 µg/mL and an MIC ([1]; clinical strain FY-47) of 16 µg/mL. For the same compound, the MIC ([1]; clinical strain FY-52) was 1 µg/mL, the “drug resistance determined on characteristic culture medium” value (“drug resistance determined” below) ([2]; clinical H. pylori strain FY-31) was “sensitive” and the “drug resistance determined” value ([2]; clinical H. pylori strain FY-43) was “sensitive”. For the same compound, the “drug resistance determined” value ([2]; clinical H. pylori strain FY-47) was “resistant”, the “drug resistance determined” value ([2]; clinical H. pylori strain FY-52) was “sensitive” and the MIC ([3]; read-out: MICs, standard sensitive strains G27 and 26695, bacterial count 1×10^6 CFU/mL) was 0.25 µg/mL. For the same compound, the MIC ([3]; read-out: minimum inhibitory concentration (MIC), strain 159, bacterial count 10^6 CFU/mL (first line of the strain)) was 4 µg/mL, the MIC ([3]; read-out: minimum inhibitory concentration (MIC), strain 159, bacterial count 10^6 CFU/mL (second line of the strain)) was 2 µg/mL and the MIC ([3]; read-out: minimum inhibitory concentration (MIC), strain 161, bacterial count 10^4 CFU/mL) was 1 µg/mL. For the same compound, the MIC ([3]; read-out: minimum inhibitory concentration (MIC), strain 161, bacterial count 10^6 CFU/mL (first line of the strain)) was 4 µg/mL, the MIC ([3]; read-out: minimum inhibitory concentration (MIC), strain 161, bacterial count 10^6 CFU/mL (second line of the strain)) was 2 µg/mL and the MIC ([3]; read-out: minimum inhibitory concentration (MIC), strain 162, bacterial count 10^6 CFU/mL (first line of the strain)) was 2 µg/mL. It also gave an MIC ([3]; read-out: minimum inhibitory concentration (MIC), strain 162, bacterial count 10^6 CFU/mL (second line of the strain)) of 1 µg/mL, an MIC ([3]; read-out: minimum inhibitory concentration (MIC), strain 163, bacterial count 10^4 CFU/mL) of 2 µg/mL and an MIC ([3]; read-out: minimum inhibitory concentration (MIC), strain 163, bacterial count 10^6 CFU/mL (first line of the strain)) of 16 µg/mL. For the same compound, the MIC ([3]; read-out: minimum inhibitory concentration (MIC), strain 163, bacterial count 10^6 CFU/mL (second line of the strain)) was 4 µg/mL, the MIC ([3]; read-out: minimum inhibitory concentration (MIC), strain 286, bacterial count 10^4 CFU/mL) was 4 µg/mL and the MIC ([3]; read-out: minimum inhibitory concentration (MIC), strain 286, bacterial count 10^6 CFU/mL (first line of the strain)) was 32 µg/mL. The MIC ([3]; read-out: minimum inhibitory concentration (MIC), strain 286, bacterial count 10^6 CFU/mL (second line of the strain)) was 16 µg/mL, the MIC ([3]; read-out: minimum inhibitory concentration (MIC), strain 287, bacterial count 10^4 CFU/mL) was 8 µg/mL and the MIC ([3]; read-out: minimum inhibitory concentration (MIC), strain 287, bacterial count 10^6 CFU/mL (first line of the strain)) was 32 µg/mL. It also gave an MIC ([3]; read-out: minimum inhibitory concentration (MIC), strain 287, bacterial count 10^6 CFU/mL (second line of the strain)) of 16 µg/mL, an MIC ([3]; read-out: minimum inhibitory concentration (MIC), strain 289, bacterial count 10^4 CFU/mL) of 8 µg/mL and an MIC ([3]; read-out: minimum inhibitory concentration (MIC), strain 289, bacterial count 10^6 CFU/mL (first line of the strain)) of 32 µg/mL. For the same compound, the MIC ([3]; read-out: minimum inhibitory concentration (MIC), strain 289, bacterial count 10^6 CFU/mL (second line of the strain)) was 16 µg/mL, the MIC ([3]; read-out: minimum inhibitory concentration (MIC), strain 290, bacterial count 10^4 CFU/mL) was 4 µg/mL and the MIC ([3]; read-out: minimum inhibitory concentration (MIC), strain 290, bacterial count 10^6 CFU/mL (first line of the strain)) was 32 µg/mL. The MIC ([3]; read-out: minimum inhibitory concentration (MIC), strain 290, bacterial count 10^6 CFU/mL (second line of the strain)) was 16 µg/mL, the MIC ([3]; read-out: minimum inhibitory concentration (MIC), strain 26695, bacterial count 10^6 CFU/mL (second line of the strain)) was 0.25 µg/mL and the MIC ([3]; resistant strains 159, 161, 162, 163, 286, 287, 289, and 290, bacterial count 1×10^6 CFU/mL, read-out: MICs) was 1 to 16 µg/mL. The MIC ([3]; strain G27, bacterial count 10^4 CFU/mL, read-out: minimum inhibitory concentration (MIC)) was 0.125 µg/mL, the MIC ([3]; strain G27, bacterial count 10^6 CFU/mL (first line of the strain), read-out: minimum inhibitory concentration (MIC)) was 0.5 µg/mL and the MIC ([3]; strain G27, bacterial count 10^6 CFU/mL (second line of the strain), read-out: minimum inhibitory concentration (MIC)) was 0.5 µg/mL. The “optimal concentration for adding antibiotics” value ([4]; conclusion of breakpoint verification) was 4 µg/mL, the “growth of sensitive strains” value ([4]; levofloxacin 0.5, clarithromycin 0.5, metronidazole 4, amoxicillin 0.5 μg/mL) was “no sensitive strain grows” and the growth of bacterial ([4]; strain 159, antibiotic 2 μg/mL) was “+”. The growth of bacterial ([4]; strain 159, antibiotic 4 μg/mL) was “+”, the growth of bacterial ([4]; strain 159, antibiotic 8 μg/mL) was “−” and the growth of bacterial ([4]; strain 161, antibiotic 2 μg/mL) was “+”. The growth of bacterial ([4]; strain 161, antibiotic 4 μg/mL) was “+”, the growth of bacterial ([4]; strain 161, antibiotic 8 μg/mL) was “−” and the growth of bacterial ([4]; strain 162, antibiotic 2 μg/mL) was “+”. The growth of bacterial ([4]; strain 162, antibiotic 4 μg/mL) was “−”, the growth of bacterial ([4]; strain 162, antibiotic 8 μg/mL) was “−” and the growth of bacterial ([4]; strain 163, antibiotic 2 μg/mL) was “+”. The growth of bacterial ([4]; strain 163, antibiotic 4 μg/mL) was “+”, the growth of bacterial ([4]; strain 163, antibiotic 8 μg/mL) was “−” and the growth of bacterial ([4]; strain 286, antibiotic 2 μg/mL) was “+”. For the same compound, the growth of bacterial ([4]; strain 286, antibiotic 4 μg/mL) was “+”, the growth of bacterial ([4]; strain 286, antibiotic 8 μg/mL) was “−” and the growth of bacterial ([4]; strain 287, antibiotic 2 μg/mL) was “+”. The growth of bacterial ([4]; strain 287, antibiotic 4 μg/mL) was “+”, the growth of bacterial ([4]; strain 287, antibiotic 8 μg/mL) was “−” and the growth of bacterial ([4]; strain 289, antibiotic 2 μg/mL) was “+”. The growth of bacterial ([4]; strain 289, antibiotic 4 μg/mL) was “+”, the growth of bacterial ([4]; strain 289, antibiotic 8 μg/mL) was “−” and the growth of bacterial ([4]; strain 290, antibiotic 2 μg/mL) was “+”. For the same compound, the growth of bacterial ([4]; strain 290, antibiotic 4 μg/mL) was “+”, the growth of bacterial ([4]; strain 290, antibiotic 8 μg/mL) was “+” and the growth of bacterial ([4]; strain 26695, antibiotic 2 μg/mL) was “+”. The growth of bacterial ([4]; strain 26695, antibiotic 4 μg/mL) was “−”, the growth of bacterial ([4]; strain 26695, antibiotic 8 μg/mL) was “−” and the growth of bacterial ([4]; strain G27, antibiotic 2 μg/mL) was “+”. The growth of bacterial ([4]; strain G27, antibiotic 4 μg/mL) was “−”, the growth of bacterial ([4]; strain G27, antibiotic 8 μg/mL) was “−” and the “resistance breakpoints of H. pylori according to CLSI guidelines” value [5] was 8 µg/mL.
